What was measured:
plantar muscle = assay: Wet weight of plantar muscle (absolute, atrophy rate, per body weight) in cast-immobilized rats; assay type: in vivo, rat; details: mean ± SD; for Atrophy Rate (plantar muscle): decrease of immobilized muscle wet weight relative to non-immobilized taken as 100; for Wet Weight of Plantar Muscle, Immobilized / Wet Weight of Plantar Muscle per Body Weight, Immobilized: immobilized leg
Experimental: (§1) As test animals, 13 female 9-week-old rats of Fischer 344 strain (purchased from SLC Inc.) were used. The rats were preliminarily bred for 3 days in a chamber in which the temperature was adjusted to 22° C. under a bright-dark cycle where 07:00 to 19:00 was the bright period, and access to water and feed was ad libitum. After the preliminary breeding, the rats were divided into two groups, and a control feed was given to a control group consisting of 7 rats while a feed comprising CDP-choline (manufactured by Kyowa Hakko Kogyo Co., Ltd.) having the composition shown in Table 1 (hereinafter referred to as a CDP-choline feed) was given to the other group consisting of 6 rats for one day. Then, the right hind limb of each rat was immobilized in plaster cast under anesthesia with pentobarbital, followed by further feeding for one week under the above conditions. Thereafter, the rats were subjected to analysis with regard to the items shown below. In the test, two muscles, i.e., plantar muscle and soleus muscle located at the lower hind limbs of a rat, were used. Soleus muscle is a representative slow skeletal muscle in lower limbs where 80 to 90% of total muscle fibers are slow muscle fibers, and plantar muscle is a typical fast skeletal muscle where about 95% of total muscle fibers are fast muscle fibers. The rat was killed after body weight measurement, and the soleus muscle and plantar muscle of both the right and left lower hind limbs were quickly excised and washed with a physiological saline solution. After extraneous connective tissues, tendons, nerves, etc. were removed, the muscle wet weights of soleus muscle and plantar muscle were measured. The relative wet weight of muscle immobilized in a cast was determined for each rat based on the wet weight of muscle which was not immobilized in a cast, taken as 100, and the decrease in muscle weight was expressed as the atrophy rate. The wet weight of muscle relative to body weight was calculated by measuring the wet weight of both right and left soleus muscles and plantar muscles and dividing the obtained value by body weight. The wet weight of muscle per body weight excludes the influence of the difference in body weight on each muscle wet weight and reflects the muscle amount per body weight. The wet weight of soleus muscle per body weight is shown in Table 7, and the wet weight of plantar muscle per body weight is shown in Table 8.

C2C12 cells = assay: Increase of intracellular protein in differentiated C2C12 cells (Methylene Blue method); assay type: cell-based, mouse; details: 3 days; for Increase Rate of Intracellular Protein: control d0 = 0, control d3 = 100
Experimental: C2C12 cells were purchased from Dainippon Pharmaceutical Co., Ltd. Culturing was carried out according to the method of Craig, et al. [Methods in Cell Biology, 52, 85 (1998)]. A medium for growth was prepared by addition of 50 ml of FBS (manufactured by Gibco; Cat. No. 10099-141) and 5 ml of penicillin-streptomycin (manufactured by Gibco; Cat. No. 15140-122) to 500 ml of D-MEM medium (manufactured by Gibco; Cat. No. 11885-084). A medium for differentiation was prepared by addition of 10 ml of inactivated horse serum (manufactured by Gibco; Cat. No. 26050-088) and 5 ml of penicillin-streptomycin to 500 ml of the D-MEM medium. C2C12 cells were seeded and cultured in a 75-cm^2 flask containing 15 ml of the medium for growth and were subcultured before reaching confluence. Culturing was carried out in a CO2 incubator under 5% CO2 concentration and 100% relative humidity. The cell suspension diluted to 5×10^4 cells/ml with the medium for growth was added to each well of type I collagen-coated 96-well plate (Iwaki; Cat. No. 4860-010) in an amount of 100 μl. After confirming that the growth was uniform, the medium was replaced by the differentiation medium. Myogenesis was confirmed under a microscope after culturing for 3 days, and then a CDP-choline-containing PBS (−) solution was added to the medium until its final concentration reached 1 mg/ml or 0.1 mg/ml, followed by further culturing. […] The amount of intracellular protein was measured according to the method of Oliver, et al. [Journal of Cell Science, 92, 513 (1989)]. […] After the solution was appropriately diluted, the absorption at 650 nm was measured using a microplate reader. To determine the rate of increase of intracellular protein, the value of the test group (group to which CDP-choline was added) after culturing for 3 days was calculated based on the value before addition of CDP-choline (do) taken as 0 and the concentration of intracellular protein in the control group (group to which no CDP-choline was added) after culturing for 3 days (d3) taken as 100.

soleus muscle [1] = assay: Degradation rate of muscle plasma protein of soleus muscle (tyrosine release); assay type: in vivo, rat; details: 2 hours incubation in Krebs-Henseleit bicarbonate buffer, mean ± SD; for Decomposition Rate of Muscle Plasma Protein of Soleus Muscle, Tyrosine, Non-immobilized: non-immobilized leg
Experimental: As test animals, 13 female 9-week-old rats of Fischer 344 strain (purchased from SLC Inc.) were used. The rats were preliminarily bred for 3 days in a chamber in which the temperature was adjusted to 22° C. under a bright-dark cycle where 07:00 to 19:00 was the bright period, and access to water and feed was ad libitum. After the preliminary breeding, the rats were divided into two groups, and a control feed was given to a control group consisting of 7 rats while a feed comprising CDP-choline (manufactured by Kyowa Hakko Kogyo Co., Ltd.) having the composition shown in Table 1 (hereinafter referred to as a CDP-choline feed) was given to the other group consisting of 6 rats for one day. Then, the right hind limb of each rat was immobilized in plaster cast under anesthesia with pentobarbital, followed by further feeding for one week under the above conditions. Thereafter, the rats were subjected to analysis with regard to the items shown below. Weighed soleus muscle was pre-incubated for 30 minutes in a Krebs-Henseleit bicarbonate buffer under aeration with […]. The muscle was then transferred to fresh Krebs-Henseleit bicarbonate buffer, and incubated for 2 hours. The concentration of tyrosine in the buffer was measured, whereby the degradation rate of muscle plasma protein was calculated. The concentration of tyrosine was measured by the fluorescence method of […], et al. using 1-nitroso-2-naphthol [J. Lab. Clin. Med., 50, 733 (1957)] (excitation wavelength: 435 nm; fluorescence wavelength: 545 nm). In order to prepare a calibration curve, a 5 nmol/ml tyrosine solution prepared as a standard solution was appropriately diluted and the relationship between its concentration and fluorescence intensity was plotted. By using the calibration curve thus prepared, the concentration of tyrosine in the buffer tested was determined from its fluorescence intensity.

soleus muscle [2] = assay: Protein content of soleus muscle in cast-immobilized rats; assay type: in vivo, rat; details: mean ± SD; for Protein Content of Soleus Muscle, Non-immobilized: non-immobilized leg
Experimental: As test animals, 13 female 9-week-old rats of Fischer 344 strain (purchased from SLC Inc.) were used. The rats were preliminarily bred for 3 days in a chamber in which the temperature was adjusted to 22° C. under a bright-dark cycle where 07:00 to 19:00 was the bright period, and access to water and feed was ad libitum. After the preliminary breeding, the rats were divided into two groups, and a control feed was given to a control group consisting of 7 rats while a feed comprising CDP-choline (manufactured by Kyowa Hakko Kogyo Co., Ltd.) having the composition shown in Table 1 (hereinafter referred to as a CDP-choline feed) was given to the other group consisting of 6 rats for one day. Then, the right hind limb of each rat was immobilized in plaster cast under anesthesia with pentobarbital, followed by further feeding for one week under the above conditions. Thereafter, the rats were subjected to analysis with regard to the items shown below. Soleus muscle was finely cut in a 1.15% potassium chloride solution and a homogenate thereof was prepared using a glass homogenizer. After the homogenate was appropriately diluted, its protein content was measured using the Protein Assay Kit of Biorad. A calibration curve was prepared using a 2 mg/ml BSA solution.

soleus muscle [3] = assay: Wet weight of soleus muscle (absolute, atrophy rate, per body weight) in cast-immobilized rats; assay type: in vivo, rat; details: mean ± SD; for Wet Weight of Soleus Muscle, Immobilized / Wet Weight of Soleus Muscle per Body Weight, Immobilized: immobilized leg; for Wet Weight of Soleus Muscle, Immobilized / Wet Weight of Soleus Muscle, Non-immobilized: 1 wt % CDP-choline feed; for Wet Weight of Soleus Muscle, Non-immobilized / Wet Weight of Soleus Muscle per Body Weight, Non-immobilized: non-immobilized leg
Experimental: as §1

C[N+](C)(C)CCOP(=O)(O)OP(=O)([O-])OC[C@H]1O[C@@H](n2ccc(N)nc2=O)[C@H](O)[C@@H]1O [CDP-Choline, Cytidine diphosphate choline]
Atrophy Rate (plantar muscle) (plantar muscle): 15.8 ± 5.8% | Atrophy Rate (plantar muscle) (plantar muscle; listed as CDP-choline): significantly lower | Wet Weight of Plantar Muscle, Immobilized (plantar muscle; 1 wt % CDP-choline feed): 104.0 ± 2.7 mg | Wet Weight of Plantar Muscle, Immobilized (plantar muscle; 1 wt % CDP-choline feed, listed as CDP-choline): significantly higher than the control group | Wet Weight of Plantar Muscle per Body Weight, Immobilized (plantar muscle): 0.731 ± 0.029 mg/g body weight | Wet Weight of Plantar Muscle per Body Weight, Immobilized (plantar muscle; listed as CDP-choline): significantly higher than the control group | Wet Weight of Plantar Muscle, Non-immobilized (plantar muscle; non-immobilized leg, 1 wt % CDP-choline feed): 123.8 ± 7.4 mg | Wet Weight of Plantar Muscle per Body Weight, Non-immobilized (plantar muscle; non-immobilized leg): 0.870 ± 0.052 mg/g body weight | Increase Rate of Intracellular Protein (C2C12 cells; CDP-choline 0.1 mg/ml): 134 | Increase Rate of Intracellular Protein (C2C12 cells; CDP-choline 1 mg/ml): 141 | Amount of intracellular protein in C2C12 cells (C2C12 cells; CDP-choline 0.1 and 1 mg/ml): increased in a CDP-choline concentration dependent manner | Decomposition Rate of Muscle Plasma Protein of Soleus Muscle, Tyrosine, Immobilized (soleus muscle [1]; immobilized leg): 322.1 ± 98.0 nmol/g tissue/2 hours | Decomposition Rate of Muscle Plasma Protein of Soleus Muscle, Tyrosine, Non-immobilized (soleus muscle [1]): 135.5 ± 50.1 nmol/g tissue/2 hours | Decomposition Rate of Muscle Plasma Protein of Soleus Muscle, Tyrosine, Non-immobilized (soleus muscle [1]; listed as CDP-choline): significantly lower than the control group | Protein Content of Soleus Muscle, Immobilized (soleus muscle [2]; immobilized leg): 128.4 ± 10.0 mg protein/g tissue | Protein Content of Soleus Muscle, Non-immobilized (soleus muscle [2]): 173.2 ± 15.0 mg protein/g tissue | Protein Content of Soleus Muscle, Non-immobilized (soleus muscle [2]; listed as CDP-choline): significantly higher than the control group | Atrophy Rate (soleus muscle) (soleus muscle [3]; decrease of immobilized muscle wet weight relative to non-immobilized taken as 100): 21.0 ± 6.5% | Wet Weight of Soleus Muscle, Immobilized (soleus muscle [3]): 61.0 ± 5.2 mg | Wet Weight of Soleus Muscle, Immobilized (soleus muscle [3]; listed as CDP-choline): no difference in wet weight of muscle | Wet Weight of Soleus Muscle per Body Weight, Immobilized (soleus muscle [3]): 0.428 ± 0.027 mg/g body weight | Wet Weight of Soleus Muscle per Body Weight, Immobilized (soleus muscle [3]; listed as CDP-choline): no difference | Wet Weight of Soleus Muscle, Non-immobilized (soleus muscle [3]): 77.2 ± 3.9 mg | Wet Weight of Soleus Muscle, Non-immobilized (soleus muscle [3]; listed as CDP-choline): no difference in wet weight of muscle | Wet Weight of Soleus Muscle per Body Weight, Non-immobilized (soleus muscle [3]): 0.542 ± 0.030 mg/g body weight | Wet Weight of Soleus Muscle per Body Weight, Non-immobilized (soleus muscle [3]; listed as CDP-choline): no difference
